This passage reports IC50 results from patent publication US9487529B2, “Macrocyclic compounds as ALK, FAK and JAK2 inhibitors” (Cephalon, Inc., priority 2011, dated 2016).

The structures appear in SMILES notation. Where a name gives a salt, the structure may show the parent alone. Read-outs that look alike come from different tables or passages of the source.

The term IC50 denotes the concentration needed to halve the response being measured.

Holding throughout (format): biochemical
For assay [1], the target named is T1, recombinant human FAK (Homo sapiens, UniProt Q05397).
T1 construct: purchased Invitrogen PV3832; host or cells: baculovirus expression system
T1 sequence (Q05397 whole entry): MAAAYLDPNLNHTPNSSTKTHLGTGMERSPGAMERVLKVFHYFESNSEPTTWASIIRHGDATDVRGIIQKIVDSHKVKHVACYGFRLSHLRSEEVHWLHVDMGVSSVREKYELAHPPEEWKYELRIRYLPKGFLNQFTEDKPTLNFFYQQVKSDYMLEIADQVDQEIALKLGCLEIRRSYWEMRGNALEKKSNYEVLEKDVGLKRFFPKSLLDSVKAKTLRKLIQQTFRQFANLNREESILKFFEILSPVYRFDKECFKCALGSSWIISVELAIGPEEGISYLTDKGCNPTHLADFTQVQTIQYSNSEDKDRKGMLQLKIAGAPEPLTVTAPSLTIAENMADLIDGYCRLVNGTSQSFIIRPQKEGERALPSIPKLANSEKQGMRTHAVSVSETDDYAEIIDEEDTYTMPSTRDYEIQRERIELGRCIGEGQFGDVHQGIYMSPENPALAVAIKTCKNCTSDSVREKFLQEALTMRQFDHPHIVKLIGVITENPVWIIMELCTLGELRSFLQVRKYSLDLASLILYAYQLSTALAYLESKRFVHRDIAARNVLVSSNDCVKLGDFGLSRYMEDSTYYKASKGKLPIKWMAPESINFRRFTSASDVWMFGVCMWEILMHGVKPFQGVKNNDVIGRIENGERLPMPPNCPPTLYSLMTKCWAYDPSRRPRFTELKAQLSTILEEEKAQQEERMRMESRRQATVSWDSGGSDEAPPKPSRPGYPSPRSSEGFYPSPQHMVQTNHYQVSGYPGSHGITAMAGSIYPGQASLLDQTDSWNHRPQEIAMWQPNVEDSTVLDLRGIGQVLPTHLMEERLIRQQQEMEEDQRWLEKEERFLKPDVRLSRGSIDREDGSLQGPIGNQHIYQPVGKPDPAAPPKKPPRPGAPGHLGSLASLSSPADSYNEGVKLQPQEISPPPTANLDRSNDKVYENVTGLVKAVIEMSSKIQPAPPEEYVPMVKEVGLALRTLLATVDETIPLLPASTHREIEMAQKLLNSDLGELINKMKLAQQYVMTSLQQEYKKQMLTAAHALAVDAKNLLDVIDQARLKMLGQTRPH
In words: FAK Enzyme Assay (TRF detection). Particulars: 10 μM ATP; average of two or more determinations; class symbols. The procedure: Example compounds were tested for their ability to inhibit the kinase activity of baculovirus-expressed recombinant human FAK using the TRF detection system as described above for JAK2. IC50 runs were performed in 96-well Costar high binding plates (#3922). The plates were coated first with 100 μL/well of 10 μg/mL neutravidin in TBS at 37° C. for 2 h, followed by 100 μL/well of 1 μg/mL 15-mer peptide substrate (biotinyl-amino-hexanoyl-EQEDEPEGDYFEWLE-amide) at 37° C. for another hour. The FAK assay mixture (total volume=100 μL/well) consisting of 20 mM HEPES, pH 7.2, 10 μM ATP, 5 mM MgCl2, 0.5 mM DTT, 0.1% BSA, and test compound (diluted in DMSO; 2.5% DMSO final in assay) was then added to the assay plate. Enzyme (10 ng/mL FAK, Invitrogen #PV3832) was added and the reaction was allowed to proceed at room temperature for 30 minutes. Detection of the phosphorylated product was performed by adding 100 μL/well of Eu—N1 labeled PY100 antibody (diluted 1:75000 in antibody dilution buffer). Samples were incubated at room temperature for 1 hour, followed by addition of 100 μL enhancement solution. Plates were agitated for 10 minutes and fluorescence of the resulting solution measured using the PerkinElmer EnVision™ 2102 (or 2104) multi-label plate reader.
(§1) Data analysis was performed using ActivityBase (IDBS, Guilford, UK). IC50 values were calculated by plotting percent inhibition versus log10 of the concentration of compound and fitting to the nonlinear regression sigmoidal dose-response (variable slope) equation in XLFit (IDBS, Guilford, UK).

In assay [2] the target is T2, baculovirus-expressed JAK2 (Homo sapiens, UniProt O60674).
T2 construct: host or cells: baculovirus expression system
T2 sequence (O60674 whole entry): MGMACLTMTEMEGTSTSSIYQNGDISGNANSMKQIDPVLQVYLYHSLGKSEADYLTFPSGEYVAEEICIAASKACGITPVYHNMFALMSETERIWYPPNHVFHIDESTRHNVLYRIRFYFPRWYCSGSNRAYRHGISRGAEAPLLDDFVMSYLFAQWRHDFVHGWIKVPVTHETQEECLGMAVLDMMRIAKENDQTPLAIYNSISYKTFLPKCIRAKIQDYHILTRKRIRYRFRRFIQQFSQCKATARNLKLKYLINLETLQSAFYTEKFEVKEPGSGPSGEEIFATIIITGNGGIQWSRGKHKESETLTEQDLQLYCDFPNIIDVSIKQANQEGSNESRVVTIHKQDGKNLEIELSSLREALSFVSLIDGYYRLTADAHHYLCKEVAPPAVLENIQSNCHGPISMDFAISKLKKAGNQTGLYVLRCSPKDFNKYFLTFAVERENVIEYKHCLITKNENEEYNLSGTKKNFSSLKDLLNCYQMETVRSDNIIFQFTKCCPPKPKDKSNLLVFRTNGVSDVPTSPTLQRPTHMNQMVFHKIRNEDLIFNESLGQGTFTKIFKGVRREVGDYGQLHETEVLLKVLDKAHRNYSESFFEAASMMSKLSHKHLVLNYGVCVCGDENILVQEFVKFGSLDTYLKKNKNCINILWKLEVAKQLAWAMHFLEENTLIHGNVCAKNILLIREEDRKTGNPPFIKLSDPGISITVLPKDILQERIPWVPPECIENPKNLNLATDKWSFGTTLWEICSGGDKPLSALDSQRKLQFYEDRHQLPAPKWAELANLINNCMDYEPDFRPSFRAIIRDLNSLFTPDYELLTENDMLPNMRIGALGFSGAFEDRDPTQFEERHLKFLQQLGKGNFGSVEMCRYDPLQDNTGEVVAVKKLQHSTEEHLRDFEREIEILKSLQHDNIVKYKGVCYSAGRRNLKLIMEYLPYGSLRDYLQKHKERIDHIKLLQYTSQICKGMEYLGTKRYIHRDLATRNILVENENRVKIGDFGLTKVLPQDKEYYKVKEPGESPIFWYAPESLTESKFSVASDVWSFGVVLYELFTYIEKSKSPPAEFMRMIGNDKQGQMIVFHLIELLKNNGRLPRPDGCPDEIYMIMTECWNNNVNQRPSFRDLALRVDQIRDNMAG
In words: JAK2 Kinase Assay (TRF detection). Conditions: 0.2 μM ATP; average of two or more determinations; class symbols. On the procedure: Compounds were tested for their ability to inhibit the kinase activity of baculovirus-expressed JAK2 using the TRF detection system. IC50 runs were conducted in 96-well Costar high binding plates (Corning Costar #3922, Corning, N.Y.). The plates were coated first with 100 μL/well of 10 μg/mL Neutravidin (Pierce #31000, Rockford, Ill.) in TBS at 37° C. for 2 hours, followed by 100 μL/well of 1 μg/mL 15-mer peptide substrate (biotinyl-amino-hexanoyl-EQEDEPEGDYFEWLE-amide, Infinity Biotech Research and Resource, Aston, Pa.) at 37° C. for another hour. The JAK2 assay mixture (total volume=100 μL/well) consisting of 20 mM HEPES, pH 7.2, 0.2 μM ATP, 1 mM MnCl2, 0.1% BSA, and test compound (diluted in DMSO; 2.5% DMSO final in assay) was then added to the assay plate. Enzyme (15 ng/ml JAK2) was added and the reaction was allowed to proceed at room temperature for 20 minutes. Detection of the phosphorylated product was performed by adding 100 μL/well of Eu—N1 labeled PY100 antibody (PerkinElmer Life Sciences #AD0041, Boston, Mass.). Incubation at the room temperature then proceeded for 1 hour, followed by addition of 100 μl enhancement solution (PerkinElmer Life Sciences #1244-105, Boston, Mass.). The plate was gently agitated and after thirty minutes, the fluorescence of the resulting solution was measured using the PerkinElmer EnVision™ 2102 (or 2104) multi-label plate reader.
as §1

Assay [3] addresses T3, human insulin receptor cytoplasmic domain (βIRCD) (Homo sapiens, UniProt P06213).
T3 construct: human insulin receptor cytoplasmic domain (βIRCD); host or cells: baculovirus expression system
In words: Insulin Receptor Kinase Assay (TRF). Particulars: 20 μM ATP, read-out: IR IC50. On the procedure: Example compounds were tested for their ability to inhibit the kinase activity of baculovirus-expressed human insulin receptor cytoplasmic domain (βIRCD) using the TRF assay as described above for ALK. Phosphorylation of the substrate, recombinant GST-PLC-γ, was detected with a europium-labeled anti-phosphotyrosine antibody and measured by TRF. Each 96-well plate (Greiner#655074) was coated with 100 μL/well of 20 μg/mL substrate solution in TBS. The IR assay mixture (total volume=100 μL/well) consisting of 20 mM HEPES (pH 7.2), 20 μM ATP, 5 mM MnCl2, 0.1% BSA, and test compound (diluted in DMSO; 2.5% DMSO final in assay) was added to the assay plates. Enzyme (20 ng/mL βIRCD) was added and the reaction was allowed to proceed at room temperature for 20 minutes. Detection of the phosphorylated product was performed by adding 100 μL/well of Eu—N1 labeled PY100 antibody (PerkinElmer#AD0160; diluted 1:10,000 in TBS-T containing 0.25% BSA). Incubation at 37° C. for 1 hour was followed by addition of 50 μL enhancement solution (Wallace#1244-105). Plates were agitated for 10 minutes and the fluorescence was measured using the PerkinElmer EnVision™ 2102 or 2104 multi-label plate reader.
as §1

Assay [4] deals with T4, baculovirus-expressed ALK (Homo sapiens, UniProt Q9UM73).
T4 construct: host or cells: baculovirus expression system
T4 sequence (Q9UM73 19-1620): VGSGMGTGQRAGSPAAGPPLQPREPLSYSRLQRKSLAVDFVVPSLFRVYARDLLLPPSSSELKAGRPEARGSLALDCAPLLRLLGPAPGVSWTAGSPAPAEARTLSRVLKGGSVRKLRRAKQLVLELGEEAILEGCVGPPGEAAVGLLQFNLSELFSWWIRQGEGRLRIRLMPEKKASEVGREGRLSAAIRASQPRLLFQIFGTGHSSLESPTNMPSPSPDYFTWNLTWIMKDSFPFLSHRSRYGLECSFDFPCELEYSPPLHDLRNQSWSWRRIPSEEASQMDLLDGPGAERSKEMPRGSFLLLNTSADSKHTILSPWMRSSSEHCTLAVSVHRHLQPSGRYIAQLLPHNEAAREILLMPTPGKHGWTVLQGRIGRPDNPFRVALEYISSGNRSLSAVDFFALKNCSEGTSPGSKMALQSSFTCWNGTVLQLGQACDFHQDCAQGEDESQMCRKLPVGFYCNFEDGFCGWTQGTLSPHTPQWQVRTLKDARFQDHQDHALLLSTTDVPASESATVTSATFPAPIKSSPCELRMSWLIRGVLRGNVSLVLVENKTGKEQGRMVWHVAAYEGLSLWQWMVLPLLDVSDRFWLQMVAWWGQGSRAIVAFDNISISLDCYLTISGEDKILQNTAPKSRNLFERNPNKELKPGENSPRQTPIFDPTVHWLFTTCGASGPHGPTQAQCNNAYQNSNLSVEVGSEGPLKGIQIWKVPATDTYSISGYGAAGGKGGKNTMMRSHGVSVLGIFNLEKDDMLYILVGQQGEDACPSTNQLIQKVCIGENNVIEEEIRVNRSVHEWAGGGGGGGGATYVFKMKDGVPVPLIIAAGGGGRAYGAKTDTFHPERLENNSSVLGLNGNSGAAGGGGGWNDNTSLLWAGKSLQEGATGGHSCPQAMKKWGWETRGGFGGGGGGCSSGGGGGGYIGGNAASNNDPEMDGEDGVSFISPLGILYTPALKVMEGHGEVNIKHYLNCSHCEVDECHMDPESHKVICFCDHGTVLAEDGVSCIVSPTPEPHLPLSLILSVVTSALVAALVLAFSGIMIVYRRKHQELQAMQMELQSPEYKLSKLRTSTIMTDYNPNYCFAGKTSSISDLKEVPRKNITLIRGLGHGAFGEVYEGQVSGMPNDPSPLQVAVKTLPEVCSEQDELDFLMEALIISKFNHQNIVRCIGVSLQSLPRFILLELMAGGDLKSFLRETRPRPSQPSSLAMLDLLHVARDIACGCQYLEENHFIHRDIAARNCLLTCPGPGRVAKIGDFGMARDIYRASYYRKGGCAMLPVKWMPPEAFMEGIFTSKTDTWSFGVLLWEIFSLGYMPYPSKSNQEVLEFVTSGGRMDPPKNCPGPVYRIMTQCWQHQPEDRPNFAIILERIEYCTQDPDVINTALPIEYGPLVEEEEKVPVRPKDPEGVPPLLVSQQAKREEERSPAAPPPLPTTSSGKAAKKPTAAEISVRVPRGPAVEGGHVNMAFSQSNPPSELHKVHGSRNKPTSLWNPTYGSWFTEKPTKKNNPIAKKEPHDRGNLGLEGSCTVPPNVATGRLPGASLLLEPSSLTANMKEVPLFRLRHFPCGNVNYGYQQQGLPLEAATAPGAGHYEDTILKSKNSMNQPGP
In words: ALK Kinase Assay (ELISA/TRF). Conditions: 1 μM ATP (Km level); average of two or more determinations; class symbols. The procedure:
Briefly, each 96-well plate was coated with 100 μL/well of 10 μg/mL substrate (GST-PLC-γ) in Tris-buffered saline (TBS). […] The reaction was initiated by adding enzyme (30 ng/mL ALK) and was allowed to proceed at 37° C. for 15 minutes. Detection of the phosphorylated product was performed by adding 100 μL/well of Eu—N1 labeled PT66 antibody (Perkin Elmer #AD0041). […] Data analysis was performed using ActivityBase (IDBS, Guilford, UK). IC50 values were calculated by plotting percent inhibition versus log10 of the concentration of compound and fitting to the nonlinear regression sigmoidal dose-response (variable slope) equation in XLFit (IDBS, Guilford, UK).
(In general: ELISA stands for enzyme-linked immunosorbent assay.)

Where [5] appears, read: average of two or more determinations, class symbols.

T3 sequence (P06213 980-1382 limits assumed): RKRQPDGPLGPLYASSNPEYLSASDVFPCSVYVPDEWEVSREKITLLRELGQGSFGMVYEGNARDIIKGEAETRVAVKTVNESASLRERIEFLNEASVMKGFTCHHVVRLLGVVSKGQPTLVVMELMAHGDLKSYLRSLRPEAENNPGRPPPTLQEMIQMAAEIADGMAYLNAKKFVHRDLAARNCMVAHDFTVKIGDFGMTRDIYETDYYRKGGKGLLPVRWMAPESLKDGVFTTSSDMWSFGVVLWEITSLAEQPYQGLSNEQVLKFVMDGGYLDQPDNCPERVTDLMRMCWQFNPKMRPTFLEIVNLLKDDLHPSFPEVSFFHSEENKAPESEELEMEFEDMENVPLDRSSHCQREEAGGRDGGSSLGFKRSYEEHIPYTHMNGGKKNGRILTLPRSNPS

`CN1CCN(c2ccc3cc2[C@H](O)[C@H](O)c2cccc(c2)Nc2nc(ncc2Cl)N3)CC1` [Example 27, (14R,15S)-6-chloro-17-(4-methylpiperazin-1-yl)-2,4,8,22-tetraazatetracyclo[14.3.1.1^3,7.1^9,13]docosa-1(20),3(22),4,6,9(21),10,12,16,18-nonaene-14,15-diol]: the IC50 in assay [1] was 1000 to 10000 nM; in assay [2], 10 to 100 nM.

`CN1CCN(c2ccc3cc2CCc2ccc(N(C)S(C)(=O)=O)c(c2)Nc2nc(ncc2Cl)N3)CC1` [Example 10, 6-Chloro-10-(2-methanesulfonyl-methyl-amino)-17-(4-methylpiperazin-1-yl)-2,4,8,22-tetraazatetracyclo[14.3.1.1^3,7.1^9,13]docosa-1(20),3(22),4,6,9(21),10,12,16,18-nonaene Trifluoroacetate (1:1)]: the IC50 in assay [1] was less than 10 nM; in assay [2] it was less than 10 nM; in assay [3] (setting [5]), 101 to 1000 nM.

`CNC(=O)c1ccc2cc1Nc1nc(ncc1Cl)Nc1ccc(N3CCN(C)CC3)c(c1)CC2` [Example 17, 6-Chloro-10-(N-methylcarboxamido)-17-(4-methylpiperazin-1-yl)-2,4,8,22-tetraazatetracyclo[14.3.1.1^3,7.1^9,13]docosa-1(20),3(22),4,6,9(21),10,12,16,18-nonaene Trifluoroacetate (1:1)]: the half-inhibitory concentration (IC50) in assay [1] is less than 10 nM; in assay [2], less than 10 nM; in assay [3] (setting [5]), 101 to 1000 nM.

Turning to `COc1ccc2cc1Nc1nc(ncc1Cl)Nc1ccc(N3CCN(C)CC3)c(c1)CC2` [Example 14, 6-Chloro-10-methoxy-17-(4-methylpiperazin-1-yl)-2,4,8,22-tetraazatetracyclo[14.3.1.1^3,7.1^9,13]docosa-1(20),3(22),4,6,9(21),10,12,16,18-nonaene Trifluoroacetate (1:1)], the IC50 in assay [1] was 10 to 100 nM; in assay [2], less than 10 nM; in assay [3] (setting [5]), 101 to 1000 nM.

For `Clc1cnc2nc1Nc1cccc(c1)CCc1cc(ccc1OCCN1CCCC1)N2` [Example 23, 6-Chloro-17-[2-(pyrrolidin-1-yl)ethoxy]-2,4,8,22-tetraazatetracyclo[14.3.1.1^3,7.1^9,13]docosa-1(20),3(22),4,6,9(21),10,12,16,18-nonaene Trifluoroacetate (1:1)], the IC50 in assay [1] was 10 to 100 nM; in assay [2] it was less than 10 nM; in assay [3] (setting [5]) it was 101 to 1000 nM.

Turning to `O=C1Nc2cccc(c2)Nc2ncc(Cl)c(n2)Nc2cccc1c2` [Example 1, 6,13,19-Triaza-4-chloro-7,14^1,3-dibenzena-1^2,4-pyrimidinacyclodocosaph-12-one], the IC50 in assay [1] is more than 10000 nM; in assay [2], 101 to 1000 nM; in assay [4], more than 10000 nM.

For `CN1CCN(c2ccc3cc2CCc2cccc(c2)Nc2nc(ncc2Cl)N3)CC1` [Example 3, 6-Chloro-17-(4-methylpiperazin-1-yl)-2,4,8,22-tetraazatetracyclo[14.3.1.1^3,7.1^9,13]docosa-1(20),3(22),4,6,9(21),10,12,16,18-nonaene Trifluoroacetate (1:1)], the IC50 in assay [1] is 101 to 1000 nM; in assay [2], less than 10 nM; in assay [3] (setting [5]), 101 to 1000 nM.

Take `CNC(=O)c1ccc2cc1Nc1nc(ncc1Cl)Nc1ccc(N3CCN(C)CC3)c(c1)/C=C\2` [Example 16, (14Z)-6-Chloro-10-(N-methylcarboxamido)-17-(4-methylpiperazin-1-yl)-2,4,8,22-tetraazatetracyclo[14.3.1.1^3,7.1^9,13]docosa-1(20),3(22),4,6,9(21),10,12,14,16,18-decaene]: the IC50 in assay [1] lay in the range of 101 to 1000 nM; in assay [2], 10 to 100 nM; in assay [4], 101 to 1000 nM.

For `CN1CCN(c2ccc3cc2/C=C\c2cccc(c2)Nc2nc(ncc2Cl)N3)CC1` [Example 2, (14Z)-6-Chloro-17-(4-methylpiperazin-1-yl)-2,4,8,22-tetraazatetracyclo[14.3.1.1^3,7.1^9,13]docosa-1(20),3(22),4,6,9(21),10,12,14,16,18-decaene], the values for the IC50 in assay [1], in assay [2] and in assay [3] (setting [5]) were 101 to 1000 nM, less than 10 nM and 1000 to 10000 nM, respectively.

Consider `COc1cc(N2CCN(C)CC2)c2cc1Nc1ncc(Cl)c(n1)Nc1cc(ccc1S(=O)(=O)C(C)C)CC2` [Example 6, 6-Chloro-10-(propane-2-sulfonyl)-17-(4-methylpiperazin-1-yl)-19-methoxy-2,4,8,22-tetraazatetracyclo[14.3.1.1^3,7.1^9,13]docosa-1(20),3(22),4,6,9(21),10,12,16,18-nonaene Trifluoroacetate (1:1)], for which the IC50 in assay [1] was less than 10 nM; in assay [2] it was 101 to 1000 nM; in assay [3] (setting [5]), 10 to 100 nM.

Regarding `COc1cc(N2CCN(C)CC2)c2cc1Nc1ncc(Cl)c(n1)Nc1cccc(c1)CC2` [Example 15, 6-Chloro-17-(4-methylpiperazin-1-yl)-19-methoxy-2,4,8,22-tetraazatetracyclo[14.3.1.1^3,7.1^9,13]docosa-1(20),3(22),4,6,9(21),10,12,16,18-nonaene Trifluoroacetate (1:1)], the results for the IC50 in assay [1], in assay [2] and in assay [3] (setting [5]) were 101 to 1000 nM, 10 to 100 nM and 101 to 1000 nM, respectively.

`COc1cc(N2CCN(C)CC2)c2cc1Nc1ncc(Cl)c(n1)Nc1cc(ccc1N(C)S(C)(=O)=O)CC2` [Example 5, 6-Chloro-10-(2-methanesulfonyl-methyl-amino)-17-(4-methylpiperazin-1-yl)-19-methoxy-2,4,8,22-tetraazatetracyclo[14.3.1.1^3,7.1^9,13]docosa-1(20),3(22),4,6,9(21),10,12,16,18-nonaene Trifluoroacetate (1:1)]: the IC50 in assay [1] was less than 10 nM; in assay [2], 10 to 100 nM; in assay [3] (setting [5]) it was 10 to 100 nM.

Turning to `COc1ccc2cc1Nc1nc(ncc1Cl)Nc1ccc(N3CCN(C)CC3)c(c1)/C=C\2` [Example 13, (14Z)-6-Chloro-10-methoxy-17-(4-methylpiperazin-1-yl)-2,4,8,22-tetraazatetracyclo[14.3.1.1^3,7.1^9,13]docosa-1(20),3(22),4,6,9(21),10,12,14,16,18-decaene], the figures for the IC50 in assay [1], in assay [2] and in assay [3] (given as numeric bound) were 101 to 1000 nM, 10 to 100 nM and more than 3000 nM, respectively.
